The source of these data is patent US7368582B2, “Amidomethyl-substituted 2-(4-sulfonylamino)-3-hydroxy-3,4-dihydro-2H-chromen-6-yl compounds, a process and intermediates for their production, and pharmaceutical compositions containing them” (Solvay Pharmaceuticals GmbH, priority 2003, dated 2008).

Series [1] deals with left atrium of rats' hearts. As to the kind of experiment: Functional refractory period prolongation on isolated left atria of rats' hearts in vitro. Further details: species or system rat (Sprague-Dawley). The settings on record: 10 μM. How it is done: 3. Investigation of the Functional Effectiveness of the Substances on the Atrium of Rats' Hearts in Vitro
In this test model it is determined to what extent the Kv 1.5-blocking substances of Formula I result in a prolongation of the functional refractory period in the left atrium of rats. The refractory period is the minimum possible elapsed time between the basic stimulus and additional stimulus in which a renewed contraction can be triggered. The extent of the prolongation of the functional refractory period is a measurement of the antiarrhythmic effectiveness of the substances according to the invention. The functional refractory period is determined by testing on the electrically stimulated preparation at what elapsed time from the preceding contraction a renewed contraction can be triggered by additional electrical stimuli.
The hearts were removed from freshly sacrificed rats (Sprague-Dawley, Charles-River, Germany). The left atria were isolated and fastened to force transducers in a temperature-controlled (30° C.), gasified (O2 95%, CO2 5%) organ bath which was filled with modified Tyrode solution (all values in mM: NaCl 137; KCl 2.7; CaCl2 1.8; MgCl2 0.8; NaHCO3 11.9; NaH2PO4 0.6; glucose 5). In order to trigger regular contractions, the preparations were electrically stimulated (rectangular pulses, pulse magnitude 3.5× threshold stimulus, pulse width 1.5 ms, frequency 1 Hz). Initially, the initial value of the functional refractory period was determined by applying extra pulses in addition to the basic stimulus, the elapsed time from the preceding basic stimulus being shortened until no further additional contraction could be triggered. Then the cumulative addition of increasing concentrations (0.1-10 μM) of the substances of Formula I took place at intervals of 20 min. each, the refractory period being determined again in each case 18 min. after the addition had taken place. Before the measurement, stock solutions of the test substances (3.2 and 0.32 mM in 100% DMSO) were prepared. In order to achieve the desired final concentrations of the substances (0.1-10 μM) in the organ bath (volume 100 ml), corresponding volumes of these stock solutions were then poured into the organ bath.
In each case the prolongation of the functional refractory period (FRP) in the left atrium of the rats' hearts in milliseconds observed after the addition of 10 μM of the respective substance of Formula I to the atrial preparations was given as characteristic variable.

In a further series the target is T1, Kv 1.3-potassium channel (Homo sapiens, UniProt P22001).
T1 construct: expressed in transfected cells; host or cells: CHO cells, stably transfected with the Kv 1.3 plasmid using DMRIE-C
T1 sequence (P22001 whole entry): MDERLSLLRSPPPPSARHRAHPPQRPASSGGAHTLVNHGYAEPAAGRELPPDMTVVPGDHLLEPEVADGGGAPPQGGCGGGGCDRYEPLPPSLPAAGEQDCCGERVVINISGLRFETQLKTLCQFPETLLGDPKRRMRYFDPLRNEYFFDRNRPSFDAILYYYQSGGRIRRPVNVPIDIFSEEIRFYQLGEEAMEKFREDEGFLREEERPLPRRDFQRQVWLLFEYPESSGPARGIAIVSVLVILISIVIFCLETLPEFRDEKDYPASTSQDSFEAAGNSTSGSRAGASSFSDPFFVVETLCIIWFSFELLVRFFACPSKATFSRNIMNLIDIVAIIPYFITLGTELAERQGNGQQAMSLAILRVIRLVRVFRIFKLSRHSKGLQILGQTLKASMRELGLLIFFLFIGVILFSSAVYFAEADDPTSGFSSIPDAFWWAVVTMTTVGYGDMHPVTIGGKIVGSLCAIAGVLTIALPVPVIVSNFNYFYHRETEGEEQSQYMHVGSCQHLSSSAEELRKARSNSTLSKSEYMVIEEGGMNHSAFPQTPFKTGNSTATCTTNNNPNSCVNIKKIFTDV
In words: In-vitro Kv 1.3-potassium channel-blocking effect (membrane potential-sensitive fluorescent dye in transfected CHO cells). The series is classed as cell-based. The settings on record: 10 μM test substance; CHO cells transfected with Kv 1.3; relative to reference margatoxin. From the text: 2. In-Vitro Investigation of the Kv 1.3-Potassium Channel-Blocking Effect of the Substances
In this test model, known oocytes of the Chinese hamster (═CHO) are used which are stably transfected with the Kv 1.3-potassium channel. The blockade of the cell-inherent Kv 1.3-potassium channel activity in the transfected cells is accompanied by a positive shift in the membrane potential from approx. −40 mV to −30 mV, whereas in the wild-type CHO cells investigated in parallel no significant shift in the membrane potential is triggered. A change in the membrane potential is thus connected to the reduction in the Kv 1.3-potassium channel activity. By blocking the Kv 1.3-potassium channels e.g. with substances of Formula I and the resulting change in the membrane potential, an accumulation of a membrane potential-sensitive fluorescent dye in intracellular compartments of the oocytes and ultimately increasing fluorescence occurs. The change in the membrane potential of the oocytes is therefore measured indirectly via the increase in fluorescence of the membrane potential-senstive dyes.
The cells were transfected with the Kv 1.3 plasmid in known manner with a commercially obtainable transfection reagent (DMRIE-C from Gibco BRL, Germany). The successful transfection was verified by immunofluorescence and by “patch-clamp” investigations of the potassium ion current. The fluorescence measurements were performed on a Tecan Safire fluorescence reader from Tecan, Germany. In each case, the increase in the fluorescent intensity caused by the blockade of the Kv 1.3-potassium channels in the oocytes with substances of Formula I in a concentration of 10 μM was determined as characteristic variable. The increase in the fluorescent intensity was given in each case in percent (%) compared with an increase in the fluorescent intensity caused by the reference substance margatoxin. Margatoxin is known as a selective Kv 1.3-potassium channel blocker (see e.g. M. Garcia-Calvo et al., J. Biol. Chem. 268 (1993) 18866-18874).

In a further series the test system is ventricle of guinea pigs. As to the kind of experiment: Functional effectiveness on guinea-pig hearts in vivo (ERP, QT, QRS, systolic blood pressure). Also noted: species or system guinea pig (Dunkin-Hartley). The settings on record: 1 min. after 10 μmole/kg i.v.; for QRS / QT / syst. blood pressure (change): guinea pigs; for syst. blood pressure (change): minus effects due to the vehicle, negative values indicate reduction; for ERP: ventricle of guinea pigs, negative values indicate shortening. An excerpt: 4. Investigation of the Functional Effectiveness of the Substances on Guinea-Pig Hearts in Vivo
In the test model shown below, it was shown that the substances according to the invention at most have slight undesirable proarrhythmic effects on repolarization in the ventricle. To this end, the influence of the compounds of Formula I on the effective refractory period (ERP) and other influencing variables on guinea-pig hearts in vivo were investigated. In this test model, non-selective potassium channel blockers not in accordance with the invention, which also block HERG and/or KvLQT1 channels, result in undesirable prolongation of the ERP and the QT time on an electrocardiogram (═ECG). The QT time is likewise a measurement of the repolarization in the heart. Prolongations of both the ERP and the QT time, respectively, which are due to the substances were independently interpreted as indications of the risk of the occurrence of undesirable torsade-de-pointes arrhythmias. Furthermore, the QRS interval also was determined in each case from the ECG as a measurement of the ventricular rate of spread of stimulus. Even a prolongation of the QRS interval caused by a test substance is connected with an increased risk of undesirable pro-arrhythmic side-effects. Therefore in this test model the lack of an ERP and QT time prolongation signifies a low risk, but the occurrence of a relevant ERP and QT prolongation on the other hand signifies an elevated risk of undesirable pro-arrhythmic effects. Also the lack of a prolongation of the QRS interval which is due to the substances due to the substances of Formula I investigated indicates a low risk of undesirable pro-arrhythmic side-effects, since lack of QRS prolongation indicates an undisturbed spread of stimulus in the ventricle. Conversely, a QRS prolongation, which is typically triggered by Class I antiarrhythmic drugs indicates slowing of the conduction rate and may promote the occurrence of ventricular tachycardias to ventricular fibrillation.
Male guinea pigs (Dunkin-Hartley from Charles River) were anaesthetized (ketamine 50 mg/kg, xylazine 10 mg/kg) and each of them was provided with a venous access via one jugular vein for administration of compounds of Formula I or a vehicle. A bipolar stimulation catheter was fed into the right ventricle of the guinea pigs via the other jugular vein (stimulation frequency 5 Hz). The arterial blood pressure was measured by a catheter located in the carotid artery which was connected to a Statham pressure transducer. The ECG was recorded via needle electrodes. The measured data were digitized via an analog/digital converter, recorded on a computer with suitable software (Ponemah Physiology Platform from Gould, USA) and printed out in parallel on a multichannel printer. After an equilibration period of 45 min., increasing doses of the compounds of Formula I or of the vehicle were administered intravenously (=i.v.) to the guinea pigs at 12-minute intervals. Before the first administration and in each case one minute after administration of increasing doses (0.1−max. 30 μmole/kg) of the substances of Formula I, the effective refractory period was measured. For this, after five normal stimuli in each case an additional pulse was applied and the elapsed time thereof from the preceding pulse was increased until a heart action was triggered. The observed time interval corresponds to the ERP of the ventricular myocardium.
In order to detect possible effects of the test substances on the blood pressure, in the same test model after each administration of substance the systolic and diastolic blood pressure was determined and compared with the previous blood-pressure level. The parameters were recorded automatically 1 and 8 min. after each administration of substance.
Only statistically significant effects were listed, with a t-test with a significance limit of P<0.05 being used for the statistical testing.

For series [2], the system named is hearts of anaesthetised cats. In words: Atrial and ventricular fibrillation threshold in anaesthetised cats in vivo. Also noted: species or system cat. Particulars: anaesthetized cats, dose 30 μmol/kg i.v. From the text:
5. Investigation of the Functional Effectiveness of the Substances on the Hearts of Anaesthetised Cats in Vivo
In the test model shown below, it was shown that the substances according to the invention at most have a marked atrial-selective effect on the heart. After administration of the substances according to the invention, a significant increase in the atrial fibrillation threshold—i.e. the current intensity at which atrial fibrillation occurs—was observed. At the same time, on the other hand, the ventricular fibrillation threshold is influenced only minimally.
Living cats were anaesthetised with chloralose/urethane (50/300 mg/kg i.v.) and were ventilated with ambient air. Then, following thoracotomy, stimulating electrodes were attached to the right atrium and the ventricle. The atrial and ventricular fibrillation threshold was determined in known manner by administration of rectangular pulses of increasing current intensity until atrial or ventricular fibrillation occurred (for performance see in detail: Br. J. Pharmac. 17 (1961) 167; Hdb. exp. Pharmacol. XVI/3 (1975) 131; Pharmacol. Res. 25 Suppl. 2 (1992) 156). The test substances of Formula I were dissolved in propylene glycol (80%) and administered intravenously in increasing doses (5-30 μmol/kg). Atrial and ventricular fibrillation thresholds were then determined at 5-minute intervals in known manner after the addition of the respective dose. The increase in the respective fibrillation threshold due to the substances investigated was expressed in percent of the value before administration of substance, i.e. a doubling of the fibrillation threshold corresponds to an increase of 100%.

Setting [3] is: percent of value before administration.

In turn, `CCc1ccc(S(=O)(=O)N[C@@H]2c3cc(CC(=O)NCc4ccccc4)ccc3OC(C)(C)[C@H]2O)cc1` [Example 11] registered an FRP prolongation in series [1] of 24 ms. Also, the “Increase in the fluorescent intensity (% margatoxin)” value on Kv 1.3-potassium channel was 99 % margatoxin. In addition, in the series on ventricle of guinea pigs, the QRS result is given as “n.s”, the QT result is listed as “n.s”, the “syst. blood pressure (change)” value is listed as “n.s” and the ERP result is reported as “n.s”.

The compound `CCc1ccc(S(=O)(=O)NC2c3cc(CC(=O)NC4CCCc5ccccc54)ccc3OC(C)(C)C2O)cc1` (centres unmarked) [Example 1, 2-(4-{[(4-Ethylphenyl)sulfonyl]amino}-3-hydroxy-2,2-dimethyl-3,4-dihydro-2H-chromen-6-yl)-N-1,2,3,4-tetrahydronaphth-1-yl acetamide] returned an FRP prolongation in series [1] of 15 ms. Moreover, the “Selectivity factor (AFT:VFT)” value in series [2] is recorded as 3. In series [2] (setting [3]), the “AFT (increase in the atrial fibrillation threshold)” value was found to be 66% and the “VFT (increase in the ventricular fibrillation threshold)” value was 22%. Moreover, in the series on ventricle of guinea pigs, the QRS entry was “n.s”, the QT entry is “n.s”, the “syst. blood pressure (change)” value is reported as “n.s” and the ERP entry is on record as “n.s”.
